# Laboratory results reported in patent US20190060384A1, “COMPOSITION FOR TREATMENT OR PREVENTION OF LUNG CANCER AND A METHOD THEREFORE” (priority 2017, published 2019).
# Key:
# NCI-H520 tumor mass = experiment: NCI-H520 xenograft nude mice: tumor mass histopathology and immunohistochemistry; format: in vivo, athymic nude mice
# From the text: (1) Anticancer effects: Changes in tumor volume, tumor weight, tumor cell volume in a formed mass, and apoptotic cell percentages, and changes in immunoreactivities of caspase-3, PARP, NT, 4-HNE, CD31, Ki-67, COX-2, iNOS, and TNF-α in the formed mass
# [1] = tested on: NCI-H520 cell xenograft nude mice; experiment: NCI-H520 xenograft nude mice: tumor-related cachexia (body weight, periovarian fat pad); format: in vivo, athymic nude mice
# [2] = mouse, in vivo, po
# From the text: Day 28; mortality, clinical symptoms, change in body weight, autopsy findings, hematological (14 items; Table 18) and hematochemical (20 items; Table 19) changes, histopathological changes (23 organs: brain cerebrum, cerebellum and bulbar, heart, thymus, lung, testis, epididymis, kidney, adrenal gland, spleen, liver, pancreas, alimentary tract esophagus, fundic portion, pyloric portion, duodenum, jejunum, ileum, cecum, colon and rectum, submandibular lymph node), and changes in content of liver lipid peroxidation and antioxidant defense system glutathione (GSH), and catalase (CAT) and superoxide dismutase (SOD) activities.
# [3] = tumor mass, oral once daily 35 days
# [4] = NCI-H520 xenograft nude mice, oral once daily 35 days
smiles,measurement,setting,value
"COc1cc2ncnc(Nc3ccc(F)c(Cl)c3)c2cc1OCCCN1CCOCC1 [Gefitinib, gefitinib]",Immunoreactive cell percentages: 4-hydroxynonenal,NCI-H520 tumor mass; [3],29.12 ± 8.55a %/tumor cells
same,Immunoreactive cell percentages: CD31,NCI-H520 tumor mass; [3],29.90 ± 5.37a %/tumor cells
same,Immunoreactive cell percentages: Cleaved caspase-3,NCI-H520 tumor mass; [3],25.77 ± 5.73d %/tumor cells
same,Immunoreactive cell percentages: Cyclooxygenase-2,NCI-H520 tumor mass; [3],56.48 ± 12.30 %/tumor cells
same,Immunoreactive cell percentages: INOS,NCI-H520 tumor mass; [3],5.34 ± 1.44 %/tumor cells
same,Immunoreactive cell percentages: Ki-67,NCI-H520 tumor mass; [3],45.34 ± 7.63a %/tumor cells
same,Immunoreactive cell percentages: Nitrotyrosine,NCI-H520 tumor mass; [3],32.93 ± 10.64d %/tumor cells
same,Immunoreactive cell percentages: PARP,NCI-H520 tumor mass; [3],22.27 ± 10.20d %/tumor cells
same,Tumor cell volume,NCI-H520 tumor mass; [3],54.48 ± 12.96a %/mm2
same,change in proportion of the tumor tissue occupied by 4-HNE immunoreactive cells,NCI-H520 tumor mass; vs tumor xenograft control,928.20%
same,change in proportion of the tumor tissue occupied by CD31 immunoreactive cells,NCI-H520 tumor mass; vs tumor xenograft control,−41.30%
same,change in proportion of the tumor tissue occupied by COX-2 immunoreactive cells,NCI-H520 tumor mass; vs tumor xenograft control,6.37%
same,change in proportion of the tumor tissue occupied by Ki-67 immunoreactive cells,NCI-H520 tumor mass; vs tumor xenograft control,−41.57%
same,change in proportion of the tumor tissue occupied by NT immunoreactive cells,NCI-H520 tumor mass; vs tumor xenograft control,368.85%
same,change in proportion of the tumor tissue occupied by PARP immunoreactive cells,NCI-H520 tumor mass; vs tumor xenograft control,673.85%
same,change in proportion of the tumor tissue occupied by TNF-α immunoreactive cells,NCI-H520 tumor mass; vs tumor xenograft control,417.98%
same,change in proportion of the tumor tissue occupied by caspase-3 immunoreactive cells,NCI-H520 tumor mass; vs tumor xenograft control,364.72%
same,change in proportion of the tumor tissue occupied by iNOS immunoreactive cells,NCI-H520 tumor mass; vs tumor xenograft control,−11.83%
same,change in proportion of the tumor tissue occupied by tumor cells,NCI-H520 tumor mass; vs tumor xenograft control,−30.68%
same,Body weight gains,"[1]; NCI-H520 xenograft nude mice, 35 days, based on actual body weight",−0.40 ± 1.01ac g
same,Body weights At first administration,"[1]; NCI-H520 xenograft nude mice, baseline",18.15 ± 1.42 g
same,Actual body weights (excluding tumor weight),[1]; [4],17.75 ± 1.11ac g
same,Body weights At sacrifice,[1]; [4],19.08 ± 1.14ac g
same,Periovarian fat pad White adipocyte diameters,[1]; [4],13.52 ± 3.46 μm
same,Periovarian fat pad absolute weight,[1]; [4],0.008 ± 0.002e
same,change in accumulated periovarian fat pad thickness,[1]; vs tumor xenograft control,−11.13%
same,change in average periovarian white fat pad cell diameter,[1]; vs tumor xenograft control,4.41%
same,change in periovarian fat pad absolute weight,"[1]; vs tumor xenograft control, 35 days",−1.52%
same,change in actual body weight excluding the tumor weight,"[1]; vs tumor xenograft control, final sacrifice date",−8.18%
same,BASO,[2],1.11 ± 0.21%
same,EOS,[2],0.36 ± 0.24%
same,HCT,[2],34.06 ± 2.18a %
same,HGB,[2],14.87 ± 0.97a g/dl
same,LYM,[2],90.22 ± 0.91c %
same,MCH,[2],21.01 ± 1.93 pg
same,MCHC,[2],42.31 ± 4.13 g/dL
same,MCV,[2],49.81 ± 3.97 fL
same,MONO,[2],3.59 ± 0.83a %
same,NEU,[2],2.95 ± 0.87c %
same,PLT,[2],760.00 ± 143.30 K/μL
same,RBC,[2],6.30 ± 0.35c M/μL
same,RET,[2],0.43 ± 0.37 ea/1000
same,WBC,[2],7.50 ± 0.49e K/μL
